Results on two compounds are retold here after patent US20210275621A1, “COMPOSITION FOR PREVENTING, ALLEVIATING, IMPROVING, OR TREATING THE FEMALE HORMONE CONTROLLING DISORDER SYNDROME OR SYMPTOMS COMPRISING GREEN TEA EXTRACT WHICH HAS MODIFIED AMOUNTS OF INGREDIENTS” (AMOREPACIFIC CORPORATION, priority 2020, published 2021).

Holding throughout (assay type): cell-based
Test [1] deals with MCF-7 cells (breast cancer cells). In words: MCF-7 breast cancer cell growth (cell counting). The conditions noted are these: 100 pM, 48 hours; FIG. 7.
Test [2] concerns the target T1, estrogen receptor ERβ (Homo sapiens, UniProt Q92731).
T1 construct: host or cells: reporter cells included in the purchased panel
As to the kind of experiment: Human ERα/β reporter assay panel (ERE-luc), ERβ. The conditions noted are these: 1 μg/mL, 24 hours; FIG. 6. The procedure: (§1) For evaluation of the effect of activating estrogen receptors alpha and beta (ERα/β) of the notified green tea extract, the high-temperature-processed green tea extract and theanine depending on the weight ratio of GCG:EGCG, a human ERα/β reporter assay panel (IB00421-48P, Indigo Bioscience) was treated with 20 μg/mL sample 1 (notified green tea extract), 20 μg/mL sample 2 (high-temperature-processed green tea extract), 20 μg/mL sample 3, or 20 μg/mL sample 4 of Preparation Example 1 or 2, or 1 μg/mL theanine of Preparation Example 3, for 24 hours and then the increased activity of the estrogen receptors ERα and ERβ was analyzed.
(§2) Specifically, ERα and ERβ are overexpressed and the ERE-luc reporter gene is included in the cells included in the human ERα/β reporter assay panel. If the activity of the estrogen receptors is increased upon treatment with the test substance, ERα and ERβ are bound to ERE and the expression of luciferase is induced. Therefore, the activity of ERα and ERβ can be determined by measuring light emission from the cells.

Test [3] deals with T2, estrogen receptor ERα (Homo sapiens, UniProt P03372).
T2 construct: host or cells: reporter cells included in the purchased panel
T2 sequence (P03372 1-595): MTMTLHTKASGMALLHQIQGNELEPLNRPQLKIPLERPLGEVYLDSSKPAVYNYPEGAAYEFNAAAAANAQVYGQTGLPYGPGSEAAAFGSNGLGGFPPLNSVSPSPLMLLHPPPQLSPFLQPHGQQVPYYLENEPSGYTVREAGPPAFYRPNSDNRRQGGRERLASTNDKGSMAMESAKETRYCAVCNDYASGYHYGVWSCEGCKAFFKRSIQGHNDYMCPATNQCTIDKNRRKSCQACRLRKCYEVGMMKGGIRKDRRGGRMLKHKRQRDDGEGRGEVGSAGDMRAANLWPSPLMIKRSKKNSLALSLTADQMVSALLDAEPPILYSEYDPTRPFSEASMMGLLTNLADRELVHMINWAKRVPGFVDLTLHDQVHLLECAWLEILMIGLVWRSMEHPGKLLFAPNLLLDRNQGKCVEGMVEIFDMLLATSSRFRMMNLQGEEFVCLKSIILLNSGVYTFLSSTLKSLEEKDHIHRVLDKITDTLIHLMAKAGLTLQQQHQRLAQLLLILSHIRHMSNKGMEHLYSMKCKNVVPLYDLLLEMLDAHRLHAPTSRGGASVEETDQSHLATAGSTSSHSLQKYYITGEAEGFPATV
As to the kind of experiment: Human ERα/β reporter assay panel (ERE-luc), ERα. The settings on record: 1 μg/mL, 24 hours; FIG. 6. The procedure:
as §1, §2

T1 sequence (Q92731 whole entry): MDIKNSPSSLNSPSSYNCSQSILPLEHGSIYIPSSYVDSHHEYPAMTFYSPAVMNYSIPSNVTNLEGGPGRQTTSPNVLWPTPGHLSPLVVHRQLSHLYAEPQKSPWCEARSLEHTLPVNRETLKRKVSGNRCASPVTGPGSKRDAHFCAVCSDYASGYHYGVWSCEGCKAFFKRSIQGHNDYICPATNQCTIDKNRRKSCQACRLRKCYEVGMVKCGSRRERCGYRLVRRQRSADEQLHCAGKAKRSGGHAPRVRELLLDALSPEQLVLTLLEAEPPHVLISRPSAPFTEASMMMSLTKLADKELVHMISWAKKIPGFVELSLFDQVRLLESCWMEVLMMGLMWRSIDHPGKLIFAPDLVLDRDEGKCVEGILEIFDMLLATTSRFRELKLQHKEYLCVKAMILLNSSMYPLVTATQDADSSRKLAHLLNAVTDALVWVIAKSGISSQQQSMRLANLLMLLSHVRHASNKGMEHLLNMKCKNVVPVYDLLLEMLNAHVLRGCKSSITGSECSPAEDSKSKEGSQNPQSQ

With `C[C@]12CC[C@@H]3c4ccc(O)cc4CC[C@H]3[C@@H]1CC[C@@H]2O` [17b-estradiol], the “growth of MCF-7 cells (number of cells)” value in test [1] is “promoted significantly”.

On to `CCNC(=O)CC[C@H](N)C(=O)O` [theanine, L-theanine], for which the “activity of estrogen receptor ERβ (luciferase activity)” value in test [2] is listed as “no receptor-activating effect”. The “activity of estrogen receptor ERα (luciferase activity)” value in test [3] was “no receptor-activating effect”.
